EC50 data for 28 molecules are collected here from US12497405B2, “Bicyclic heterocycle compounds methods of use thereof for the treatment of herpes viruses” (Merck Sharp & Dohme LLC, priority 2019, dated 2025).

Common to all, as to type: cell-based
The subject of one experiment is CMV. Kind of experiment: Viral qPCR assay, CMV. Particulars: infected cells, viral genome copies by qPCR normalized to PPIA, read-out: CMV Cell EC50. The method, then:
(§1) MRC5 cells, Vero cells, and MeWo cells were obtained from ATCC, and were maintained at 37° C./5% CO2/90% relative humidity in Minimal Essential Medium with 10% fetal bovine serum, […] L-glutamine, 100 units/ml penicillin and 100 ug/ml streptomycin. Assay plates were prepared by dispensing compounds dissolved in DMSO into wells of 384 well collagen-coated plates using an ECHO acoustic dispenser. Each test compound was tested in a 10-point, serial 3-fold dilution. Controls included uninfected cells and infected cells treated only with DMSO. Assays were initiated by mixing selected cells, in suspension, with virus, and dispensing 50 μl/well infected cells to pre-plated compounds. Plates were incubated at 37° C./5% CO2/90% relative humidity for ˜72 hrs to permit genomic replication, and infected cells were lysed by the addition of an equal volume of lysis buffer (10 mM Tris-HCl, pH8, 50 mM KCl, 2 mM MgCl2, 0.45% NP-40, 0.45% Tween-20, and 100 µg/ml proteinase K). An aliquot of the lysate was then transferred to a 384-well PCR plate and incubated at 56° C. for 1 hour, and then at 95° C. for 10 minutes. Levels of the selected viral gene and of the cellular control, PPIA, were measured in separate 10 μl qPCR assays using TaqMan® Gene Expression Master Mix (Applied Biosystems), and an 7900HT Fast Real-Time PCR System with 384-Well Block Module. 7-point, serial 10-fold dilutions of a plasmid standard were run on each plate to generate a standard curve, and genome copies numbers were calculated by plotting experimental Ct onto linear regression of the standard curve. Viral genome copy numbers were normalized by cellular control copy number, and compound effects were normalized to the window defined by the controls. Calculated % effects were fit using a 4-parameter algorithm, and EC50 was reported.

A further experiment relates to HSV1. In words: Viral qPCR assay, HSV1. Particulars: infected cells, viral genome copies by qPCR normalized to PPIA, read-out: HSV1 Cell EC50. How it is done: as §1
The next experiment relates to HSV2. In words: Viral qPCR assay, HSV2. Particulars: infected cells, viral genome copies by qPCR normalized to PPIA, read-out: HSV2 Cell EC50. The method, then:
as §1
Background: Quantitative PCR measures a nucleic acid by following its amplification.

Like-named read-outs stand apart in the source and are kept apart here.

On to `O=C1OC[C@@H]2C[C@@H](Oc3cc4c(=O)n(Cc5ccc(Cl)cc5)c(OC5CCC(O)CC5)nc4cc3-c3cnn(C(F)F)c3)CCN12` (single isomer, unassigned) [Example 141], for which the EC50 is 205 nM in the experiment with CMV (~72 hrs); 258 nM in the experiment on HSV1 (Human alphaherpesvirus 1, 72 h); 184 nM with HSV2 (Human alphaherpesvirus 2, 72 h).
Regarding `O=C1OC[C@@H]2C[C@@H](Oc3cc4c(=O)n(Cc5ccc(Cl)cc5)c(OC5CCC(O)CC5)nc4cc3-c3cnn(C(F)F)c3)CCN12` (single isomer, unassigned) [Example 143], the EC50 in the experiment with CMV (~72 hrs) amounted to 95 nM; with HSV1 (~72 hrs), 213 nM; in the experiment with HSV2 (~72 hrs) it was 181 nM.
For `Cc1nc2cc(-c3cc4n(n3)C(C(F)(F)F)CN(C)C4)c(O[C@H]3CCN4C(=O)OC[C@@H]4C3)cc2c(=O)n1Cc1ccc(Cl)cc1` (single isomer, unassigned) [Example 151], the EC50 in the experiment on CMV (Human betaherpesvirus 5, 72 h) worked out at 178 nM; in the experiment with HSV1 (Human alphaherpesvirus 1, 72 h), 233 nM; in the experiment with HSV2 (Human alphaherpesvirus 2, 72 h) it was 176 nM.
As to `Cc1nc2cc(-c3cc4n(n3)C(C(F)(F)F)CN(C)C4)c(O[C@H]3CCN4C(=O)OC[C@@H]4C3)cc2c(=O)n1Cc1ccc(Cl)cc1` (single isomer, unassigned) [Example 152], the half-maximal effective concentration (EC50) with CMV (~72 hrs) amounted to 159 nM; in the experiment on HSV1 (~72 hrs) it was 231 nM; in the experiment with HSV2 (~72 hrs), 226 nM.
With `Cc1nc2cc(-c3cc4ccccn4n3)c(O[C@H]3CCN4C(=O)OC[C@@H]4C3)cc2c(=O)n1Cc1ccc(Cl)cc1` [Example 15], the EC50 with CMV (Human betaherpesvirus 5, 72 h) was 60 nM; with HSV1 (Human alphaherpesvirus 1, 72 h), 74 nM; with HSV2 (Human alphaherpesvirus 2, 72 h), 41 nM.
The matching figures for `Cc1nc2cc(-c3cn4ccnc4s3)c(O[C@H]3CCN4C(=O)OC[C@@H]4C3)cc2c(=O)n1Cc1ccc(Cl)cc1` [Example 16]: 33 nM, 42 nM and 18 nM.
For `Cc1nc2nc(-c3ccn(C(F)F)n3)c(O[C@H]3CCN4C(=O)OC[C@@H]4C3)cc2c(=O)n1Cc1ccc(Cl)cc1` [Example 20], in that order: 117 nM, 247 nM and 209 nM.
With `O=C1OC[C@@H]2C[C@@H](Oc3cc4c(=O)n(Cc5ccc(Cl)cc5)cnc4nc3-c3cnco3)CCN12` [Example 37], the EC50 was found to be 20 nM with CMV (Human betaherpesvirus 5, 72 h); 19 nM in the experiment on HSV1 (Human alphaherpesvirus 1, 72 h); 11 nM with HSV2 (Human alphaherpesvirus 2, 72 h).
For `Cc1nc2cc(-c3ccc4ncoc4c3)c(O[C@H]3CCN4C(=O)OC[C@@H]4C3)cc2c(=O)n1Cc1ccc(Cl)cc1` [Example 89], in that order: 375 nM, 436 nM and 273 nM.
For `Cc1nc2cc(-c3cn4ccncc4n3)c(O[C@H]3CCN4C(=O)OC[C@@H]4C3)cc2c(=O)n1Cc1ccc(Cl)cc1` [Example 91], in that order: 479 nM, 527 nM and 602 nM.
The matching figures for `Cc1nn(C(F)F)cc1-c1cc2nc(C)n(Cc3ccc(Cl)cc3)c(=O)c2cc1O[C@H]1CCN2C(=O)OC[C@@H]2C1` [Example 92]: 379 nM, 796 nM and 506 nM.
Consider `COc1ncc(-c2cc3nc(C)n(Cc4ccc(Cl)cc4)c(=O)c3cc2O[C@H]2CCN3C(=O)OC[C@@H]3C2)c(C)n1` [Example 93], for which the EC50 came out at 1430 nM in the experiment on CMV (Human betaherpesvirus 5, 72 h); 2590 nM with HSV1 (Human alphaherpesvirus 1, 72 h); 3380 nM in the experiment on HSV2 (Human alphaherpesvirus 2, 72 h).
Consider `COc1ncncc1-c1cc2nc(C)n(Cc3ccc(Cl)cc3)c(=O)c2cc1O[C@H]1CCN2C(=O)OC[C@@H]2C1` [Example 94], for which the EC50 turned out to be 1470 nM with CMV (Human betaherpesvirus 5, 72 h); 2410 nM in the experiment on HSV1 (Human alphaherpesvirus 1, 72 h); 1880 nM in the experiment with HSV2 (Human alphaherpesvirus 2, 72 h).
The matching figures for `Cc1nc2cc(-c3cnc4nccn4c3)c(O[C@H]3CCN4C(=O)OC[C@@H]4C3)cc2c(=O)n1Cc1ccc(Cl)cc1` [Example 96]: 2060 nM, 2920 nM and 3280 nM.
Take `Cc1nc2cc(-c3cc4cnccn4c3)c(O[C@H]3CCN4C(=O)OC[C@@H]4C3)cc2c(=O)n1Cc1ccc(Cl)cc1` [Example 99]: the EC50 with CMV (Human betaherpesvirus 5, 72 h) is 272 nM; in the experiment on HSV1 (Human alphaherpesvirus 1, 72 h), 118 nM; in the experiment with HSV2 (Human alphaherpesvirus 2, 72 h), 77 nM.
For `Cc1nc2cc(-c3cc4ncccn4n3)c(O[C@H]3CCN4C(=O)OC[C@@H]4C3)cc2c(=O)n1Cc1ccc(Cl)cc1` [Example 100], in that order: 63 nM, 86 nM and 43 nM.
The matching figures for `Cc1nc2cc(-c3nc4cnccn4n3)c(O[C@H]3CCN4C(=O)OC[C@@H]4C3)cc2c(=O)n1Cc1ccc(Cl)cc1` [Example 101]: 449 nM, 223 nM and 88 nM.
The matching figures for `O=C1OC[C@@H]2C[C@@H](Oc3cc4c(=O)n(Cc5ccc(Cl)cc5)c(OCCO)nc4cc3-c3cnn(C(F)F)c3)CCN12` [Example 102]: 135 nM, 71 nM and 37 nM.
In the case of `Cc1nc2cc(-c3nc4ncccn4n3)c(O[C@H]3CCN4C(=O)OC[C@@H]4C3)cc2c(=O)n1Cc1ccc(Cl)cc1` [Example 103], the EC50 turned out to be 83 nM in the experiment with CMV (Human betaherpesvirus 5, 72 h); 55 nM in the experiment on HSV1 (Human alphaherpesvirus 1, 72 h); 55 nM in the experiment on HSV2 (Human alphaherpesvirus 2, 72 h).
On to `Cc1nc2cc(-c3cn4ccccc4n3)c(O[C@H]3CCN4C(=O)OC[C@@H]4C3)cc2c(=O)n1Cc1ccc(Cl)cc1` [Example 104], for which the EC50 is 99 nM with CMV (Human betaherpesvirus 5, 72 h); 45 nM in the experiment on HSV1 (Human alphaherpesvirus 1, 72 h); 32 nM in the experiment with HSV2 (Human alphaherpesvirus 2, 72 h).
The matching figures for `Cc1nc2cc(-c3nc4ccccn4n3)c(O[C@H]3CCN4C(=O)OC[C@@H]4C3)cc2c(=O)n1Cc1ccc(Cl)cc1` [Example 105]: 112 nM, 48 nM and 55 nM.
The matching figures for `N#Cc1nc2cc(-c3cnn(C(F)F)c3)c(O[C@H]3CCN4C(=O)OC[C@@H]4C3)cc2c(=O)n1Cc1ccc(Cl)cc1` [Example 106]: 143 nM, 102 nM and 73 nM.
For `Cc1nc2cc(-c3cc4cncnn4c3)c(O[C@H]3CCN4C(=O)OC[C@@H]4C3)cc2c(=O)n1Cc1ccc(Cl)cc1` [Example 107], in that order: 52 nM, 52 nM and 31 nM.
For `Cc1nc2cc(-c3cc4n(n3)CCN(C3CCOCC3)C4)c(O[C@H]3CCN4C(=O)OC[C@@H]4C3)cc2c(=O)n1Cc1ccc(Cl)cc1` [Example 108], the concentration for a half-maximal effect (EC50) stood at 201 nM in the experiment with CMV (Human betaherpesvirus 5, 72 h); 198 nM in the experiment on HSV1 (Human alphaherpesvirus 1, 72 h); 87 nM with HSV2 (Human alphaherpesvirus 2, 72 h).
The matching figures for `Cc1nc2cc(-c3cnc(OC4CCOCC4)nc3)c(O[C@H]3CCN4C(=O)OC[C@@H]4C3)cc2c(=O)n1Cc1ccc(Cl)cc1` [Example 109]: 465 nM, 413 nM and 153 nM.
For `Cc1ccc(-c2cc3nc(C)n(Cc4ccc(Cl)cc4)c(=O)c3cc2O[C@H]2CCN3C(=O)OC[C@@H]3C2)nn1` [Example 110], in that order: 200 nM, 288 nM and 133 nM.
The matching figures for `Nc1nc2cc(-c3cnn(C(F)F)c3)c(O[C@H]3CCN4C(=O)OC[C@@H]4C3)cc2c(=O)n1Cc1ccc(Cl)cc1` [Example 111]: 85 nM, 101 nM and 60 nM.
In the case of `COc1ccc(-c2cc3nc(C)n(Cc4ccc(Cl)cc4)c(=O)c3cc2O[C@H]2CCN3C(=O)OC[C@@H]3C2)nc1` [Example 112], the EC50 turned out to be 142 nM in the experiment with CMV (Human betaherpesvirus 5, 72 h); 148 nM with HSV1 (Human alphaherpesvirus 1, 72 h); 81 nM with HSV2 (Human alphaherpesvirus 2, 72 h).

The term EC50 denotes the midpoint of the concentration-response curve.
